A short description of series [1]: Solubility of compound (1) in aqueous solutions. The class given is physicochemical.
The nature of series [2]: Absorbability after oral administration. Type of series: in vivo. The settings on record: orally administered to a subject.

For `CN1CCc2nc(C(=O)N[C@@H]3C[C@@H](C(=O)N(C)C)CC[C@@H]3NC(=O)C(=O)Nc3ccc(Cl)cn3)sc2C1` [compound (1), N^1-(5-chloropyridin-2-yl)-N^2-(4-[(dimethylamino)carbonyl]-2-{[(5-methyl-4,5,6,7-tetrahydrothiazolo[5,4-c]pyridin-2-yl)carbonyl]amino}cyclohexyl)ethanediamide], the solubility entry in series [1] (neutral pH aqueous solution (e.g., neutral buffer solution)) is given as “solubility decreases”; in series [1] (strong acidic aqueous solution), “high solubility”. In addition, the absorbability result in series [2] is on record as “excellent absorbability”.
